In US8895035B2, “Alkoxyimino derivative and pest control agent” (Kumiai Chemical Industry Co., Ltd, priority 2010, dated 2014):

Experiments:
Assay type in all cases: in vivo
[1] = system: Nilaparvata lugens Stál (brown rice planthopper); assay: Insecticidal action test for Nilaparvata lugens Stál (immersed sprouting rice); settings: 144 h, 500 ppm active ingredient, sprouting unhulled rice immersed, 3-age larvae, 25° C., after 6 days, read-out: insect mortality
Experimental: A wettable powder prepared based on Formulation Example 2 was diluted with water so that the concentration of active ingredient became 500 ppm. In the diluted formulation were immersed sprouting unhulled rice. The immersed rice was placed in a plastic cup of 60 ml. Into the plastic cup were released 10 3-age larvae of Nilaparvata lugens Stál (brown rice planthopper). The cup was covered with a cap and placed in a thermostat of 25° C. After 6 days, the number of living insects was counted and the mortality of insect was calculated using the calculation formula of Mathematical Expression 1.

[2] = system: Aphis gossipii Glover (cotton aphid, melon aphid); assay: Insecticidal action test for Aphis gossipii Glover (seedling immersion); settings: 72 h, 500 ppm active ingredient, cucumber seedlings with hatchlings immersed, 25° C., after 3 days, read-out: insect mortality
Experimental: A wettable powder prepared based on Formulation Example 2 was diluted with water so that the concentration of active ingredient became 500 ppm. In the resulting liquid were immersed cucumber seedlings on which the hatchlings of Aphis gossipii Glover were parasitic, after which the cucumber seedlings were dried in the air. The resulting cucumber seedlings were placed in a thermostat of 25° C. After 3 days, the number of living insects was calculated and the mortality of insect was calculated using the calculation formula of the following Mathematical Expression 1. Insect mortality (%)=[1−(number of living insects)/(number of tested insects)]×100 [Mathematical Expression 1]

[3] = system: Aphis gossipii Glover (cotton aphid, melon aphid); assay: Insecticidal action test for Aphis gossipii Glover (drench); settings: soil, 72 h, 500 ppm active ingredient, 5 ml drenched to foot of cucumber seedlings with hatchlings, 25° C., after 3 days, read-out: insect mortality
Experimental: A wettable powder prepared based on Formulation Example 2 was diluted with water so that the concentration of active ingredient became 500 ppm. 5 ml of the resulting diluted formulation was drenched to the […] foot of cucumber seedlings on which the hatchlings of Aphis gossipii Glover were parasitic. The resulting cucumber seedlings were placed in a thermostat of 25° C. After 3 days, the number of living insects was calculated and the mortality of insect was calculated using the calculation formula of Mathematical Expression 1.

[4] = system: Brown planthopper (Nilaparvata lugens); assay: Trial of systematic insecticidal activity against brown planthopper; settings: 144 h, 1,800 ppm active ingredient, 250 μl poured to rice-plant foot of rice seedlings, 3-age larvae, 25° C., after 6 days, read-out: insect mortality
Experimental: A wettable powder prepared based on Formulation Example 2 was diluted with water so that the concentration of active ingredient became 1,800 ppm. 250 μl of the diluted formulation was poured to the rice-plant foot of 2.5-leaf age rice seedlings planted in a paper pot of 1.5 cm (length)×1.5 cm (width)×3 cm (height). Then, the paper pot was placed in a plastic cup of 700 ml. Into the plastic cup were released 5 3-age larvae of Nilaparvata lugens Stál (brown rice planthopper). The cup was covered with a cap and placed in a thermostat of 25° C. After 6 days, the number of living insects was counted and the mortality of insect was calculated using the calculation formula of Mathematical Expression 1.

Row | SMILES | mortality at 500 ppm [1] | mortality at 500 ppm [2] | mortality at 500 ppm [3] | mortality at 1800 ppm [4]
1 | CC(C)ON=C(Cl)C(=NOC(C)C)n1cncn1 [I-4, 1-(2-chloro-1,2-diisopropoxyiminoethyl)-1H-1,2,4-triazole] | ≥ 90% | ≥ 90% | ≥ 90% | ≥ 90%
2 | CC(C)ON=C(C#N)C(=NOC(C)C)n1cncn1 [I-50, 1-(2-cyano-1,2-diisopropoxyiminoethyl)-1H-1,2,4-triazole] | ≥ 90% | ≥ 90% | – | ≥ 90%
3 | CC(C)ON=C(C(N)=O)C(=NOC(C)C)n1cncn1 [I-73, 1-(2-carbamoyl-1,2-diisopropoxyiminoethyl)-1H-1,2,4-triazole] | ≥ 90% | – | – | –
4 | CC(C)CON=C(N)C(=NOC(C)C)n1cncn1 [I-121, 1-(2-amino-2-isobutoxyimino-1-isopropoxyiminoethyl)-1H-1,2,4-triazole] | ≥ 90% | ≥ 90% | – | –
5 | CC(C)ON=C(Br)C(=NOC(C)C)n1cncn1 [I-142, 1-(2-bromo-1,2-diisopropoxyiminoethyl)-1H-1,2,4-triazole] | ≥ 90% | ≥ 90% | – | ≥ 90%
6 | COC(=NOC(C)C)C(=NOC(C)C)n1cncn1 [I-165, 1-(1,2-diisopropoxyimino-2-methoxyethyl)-1H-1,2,4-triazole] | ≥ 90% | ≥ 90% | – | ≥ 90%
7 | CC(C)ON=C(C(=NOC(C)C)n1cncn1)n1cncn1 [I-212, 1,2-diisopropoxyimino-1,2-bis(1H-1,2,4-triazol-1-yl)ethane] | ≥ 90% | ≥ 90% | – | –
8 | CC(C)ON=C(C(=NOC(C)C)n1cncn1)c1nnn[nH]1 [I-213, 1-[1,2-diisopropoxyimino-2-(1H-tetrazol-5-yl)ethyl]-1H-1,2,4-triazole] | ≥ 90% | – | – | –
9 | CSC(=NOC(C)C)C(=NOC(C)C)n1cncn1 [I-228, 1-(2-methylthio-1,2-diisopropoxyiminoethyl)-1H-1,2,4-triazole] | ≥ 90% | ≥ 90% | – | ≥ 90%
10 | CC(=NOC(C)C)C(=NOC(C)C)n1ccnc1 [I-273, 1-(1,2-diisopropoxyiminopropyl)imidazole] | ≥ 90% | ≥ 90% | – | ≥ 90%
11 | CON=C(C(=NOC(C)C)C(=O)OC)n1cncn1 [II-221, 1-(2-isopropoxyimino-2-methoxycarbonyl-1-methoxyiminoethyl)-1H-1,2,4-triazole] | ≥ 90% | ≥ 90% | – | –
12 | CCSC(=O)C(=NOC(C)C)C(=NOC)n1cncn1 [II-222, S-ethyl 2-isopropoxyimino-3-methoxyimino-3-(1H-1,2,4-triazol-1-yl)propanethioate] | ≥ 90% | ≥ 90% | – | –
13 | CON=C(C(=NOC(C)C)C(N)=S)n1cncn1 [II-224, 1-(2-isopropoxyimino-2-thiocarbamoyl-1-methoxyiminoethyl)-1H-1,2,4-triazole] | ≥ 90% | ≥ 90% | – | ≥ 90%
14 | CCCCON=C(C#N)C(=NOCC)n1cncn1 [III-51, 1-(2-n-butoxyimino-2-cyano-1-ethoxyiminoethyl)-1H-1,2,4-triazole] | ≥ 90% | ≥ 90% | – | –
15 | CCCCON=C(C(N)=O)C(=NOCC)n1cncn1 [III-74, 1-(2-n-butoxyimino-2-carbamoyl-1-ethoxyiminoethyl)-1H-1,2,4-triazole] | ≥ 90% | – | – | –
16 | CCCON=C(C#N)C(=NOCCC)n1cncn1 [IV-90, 1-[2-cyano-1,2-bis(n-propoxyimino)ethyl]-1H-1,2,4-triazole] | ≥ 90% | ≥ 90% | – | –
17 | CCCON=C(C(N)=O)C(=NOCCC)n1cncn1 [IV-101, 1-[2-carbamoyl-1,2-bis(n-propoxyimino)ethyl]-1H-1,2,4-triazole] | ≥ 90% | – | – | ≥ 90%
18 | N#CC(=NOCC(F)(F)C(F)(F)F)C(=NOCC(F)(F)F)n1cncn1 [IV-185, 1-[2-cyano-2-(2,2,3,3,3-pentafluoro-n-propoxyimino)-1-(2,2,2-trifluoroethoxyimino)ethyl]-1H-1,2,4-triazole] | ≥ 90% | – | – | –
19 | CC(=NOC(C)C)C(=NOC(C)C)n1ccnc1S [V-10, 1-(1,2-diisopropoxyiminopropyl)-2-mercaptoimidazole] | ≥ 90% | ≥ 90% | – | –
